According to PMC10043345, “Discovery of BAR502, as potent steroidal antagonist of leukemia inhibitory factor receptor for the treatment of pancreatic adenocarcinoma” (Frontiers in Oncology, 2023):

How the values were obtained:
Type in all cases: cell-based, human
MIA PaCa-2 cells [1] = assay: Scratch wound healing assay; settings: BAR502 10 µM + LIF 10 ng/mL; 0, 24, 48 h
Experimental: MIA PaCa-2 cells were seeded in DMEM complete medium at […] cells/well into 24-well plate and used at 70-80% confluence rate. The assay was performed as previously described ([20]), particularly on the day 1, the cell monolayers were gently scraped vertically with a new 0.2 mL pipette tip across the centre of the well. After scratching, the well was gently washed twice with PBS (Euroclone, Milan, Italy) to remove the detached cells and cell debris and finally fresh medium containing LIF (10 ng/mL) alone or in combination with BAR502 (10 µM) or EC359 (25 nM) was added into each well. Immediately after scratch creation, the 24-plate was placed under a phase-contrast microscope and the first image of the scratch acquired (T0) with using a OPTIKAM Pro Cool 5 – 4083.CL5 camera. Cells were grown for additional 48 h and images taken at 24h (T1) and 48 h (T2). The gap distance between scarps borders was quantified by assessing that area between the two margins of the scratches. All experiments were performed in triplicate.

MIA PaCa-2 cells [2] = assay: AmpliSeq transcriptome (RNAseq) analysis; settings: LIF 10 ng/mL + BAR502 10 µM versus LIF, 24 h
Experimental: MIA PaCa-2 cells were cultured in 6-well tissue culture plate (cell density 1.5 * 10^6/well) in DMEM complete medium. After serum starving, cells were exposed with LIF (10 ng/mL) alone or plus BAR502 (10 µM) or left untreated for 24h. High-quality RNA was extracted from MIA PaCa-2 cells using the PureLink™ RNA Mini Kit (Thermo Fisher Scientific), according to the manufacturer’s instructions. RNA quality and quantity were assessed with the Qubit® RNA HS Assay Kit and a Qubit 3.0 fluorometer followed by agarose gel electrophoresis. Libraries were generated using the Ion AmpliSeq™ Transcriptome Human Gene Expression Core Panel and Chef-Ready Kit (Thermo Fisher Scientific), according to the manufacturer’s instructions. Briefly, 10 ng of RNA was reverse transcribed with SuperScript™ Vilo™ cDNA Synthesis Kit (Thermo Fisher Scientific, Waltham, MA) before library preparation on the Ion Chef™ instrument (Thermo Fisher Scientific, Waltham, MA). The resulting cDNA was amplified to prepare barcoded libraries using the Ion Code™ PCR Plate, and the Ion AmpliSeq™ Transcriptome Human Gene Expression Core Panel (Thermo Fisher Scientific, Waltham, MA), Chef-Ready Kit, according to the manufacturer’s instructions. Barcoded libraries were combined to a final concentration of 100 pM, and used to prepare Template-Positive Ion Sphere™ (Thermo Fisher Scientific, Waltham, MA) Particles to load on Ion 540™ Chips, using the Ion 540™ Kit-Chef (Thermo Fisher Scientific, Waltham, MA). Sequencing was performed on an Ion S5™ Sequencer with Torrent Suite™ Software v6 (Thermo Fisher Scientific). The analyses were performed with a range of fold <−2 and >+2 and a p value < 0.05, using Transcriptome Analysis Console Software (version 4.0.2), certified for AmpliSeq analysis (Thermo-Fisher). The transcriptomic data have been deposited as dataset on Mendeley data repository […].

MIA PaCa-2 cells [3] = assay: Real-time PCR and Western blot of EMT markers, CXCR4 and STAT3 phosphorylation
Experimental: The RNA was extracted from cell lines using and Direct-zol™ RNA MiniPrep w/Zymo-Spin™ IIC Columns (Zymo Research, Irvine, CA, USA)., according to the manufacturer’s protocol as described previously ([20]). After purification from genomic DNA by DNase-I treatment (ThermoFisher Scientific, Waltham, MA USA), 2 µg of RNA from each sample was reverse-transcribed using Kit FastGene Scriptase Basic (Nippon Genetics, Mariaweilerstraße, Düren, Germania) in a 20 μL reaction volume. Finally, 50 ng cDNA were amp LIFied in a 20 μL solution containing 200 nM of each primer and 10 μL of SYBR Select Master Mix (ThermoFisher Scientific). All reactions were performed in triplicate, and the thermal cycling conditions were as follows: 3 min at 95°C, followed by 40 cycles of 95°C for 15 s, 56°C for 20 s and 72°C for 30 s, using a Step One Plus machine (Applied Biosystem). The relative mRNA expression was calculated accordingly to the 2^-ΔCt method. Primers used in this study were designed using the PRIMER3 (http://frodo.wi.mit.edu/primer3/) software using the NCBI […]. RT-PCR primers used in this study for human sample and human cell lines were as follow [forward (for) and reverse (rev)]:
MIA-PaCa 2 cells were seeded in 6-well tissue culture plate (cell density 1.5 * 10^6/well) in DMEM complete medium. After serum starving, cells were incubated with LIF (10 ng/mL) alone or plus BAR502 (10 µM) for 10 min. Total lysates were prepared by homogenization of MIA-PaCa2 cells in RIPA buffer containing phosphatase and protease inhibitors. […] Primary Abs were detected with the HRP-labeled secondary Abs. […] Quantitative densitometry analysis was performed using ImageJ software. The degree of STAT3 phosphorylation was calculated as the ratio between the densitometry readings of […] p-STAT3/STAT3.

**Q.** `CC[C@H]1[C@@H](O)C2C3CC[C@H]([C@H](C)CCO)[C@@]3(C)CCC2[C@@]2(C)CC[C@@H](O)C[C@@H]12` (some centres unmarked) [BAR502] was tested. Which “reduction of detachment and migration compared to LIF” value (MIA PaCa-2 cells [1]) did it give?
**A.** Its value is “≈ 40%”.

**Q.** And the “CCND2 expression Fold Change (FC)” value (MIA PaCa-2 cells [2])?
**A.** The value was 16,13.

**Q.** And the “KIF20A expression Fold Change (FC)” value (MIA PaCa-2 cells [2])?
**A.** The value was -17,49.

**Q.** And the “RRM2 expression Fold Change (FC)” value (MIA PaCa-2 cells [2])?
**A.** Its value is -14,34.

**Q.** And the “SESN2 expression Fold Change (FC)” value (MIA PaCa-2 cells [2])?
**A.** The value was 15,84.

**Q.** What about the “SLC7A11 expression Fold Change (FC)” value (MIA PaCa-2 cells [2]) of the same compound?
**A.** Its value is 35,54.

**Q.** And the “TNFRSF1B (TNFR2) expression Fold Change (FC)” value (MIA PaCa-2 cells [2])?
**A.** The value was -11,72.

**Q.** And the “TOP2A expression Fold Change (FC)” value (MIA PaCa-2 cells [2])?
**A.** The value was -9,61.

**Q.** What about the “effect on STAT3 phosphorylation caused by LIF” value (MIA PaCa-2 cells [3]; BAR502 10 µM + LIF 10 ng/mL, Western blot) of the same compound?
**A.** Its value is “significantly attenuated STAT3 phosphorylation”.

**Q.** And the “effect on vimentin expression (RNA and protein) induced by LIF” value (MIA PaCa-2 cells [3]; BAR502 10-20 μM + LIF 10 ng/mL)?
**A.** Its value is “reversed the induction of vimentin expression”.

**Q.** What about the “effect on CXCR4 mRNA expression increased by LIF” value (MIA PaCa-2 cells [3]; BAR502 + LIF 10 ng/mL, 24 h) of the same compound?
**A.** The value was “reversed the mRNA expression”.
